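Following 48 hours of exposure in 96-well plates, responses at five concentrations were used to interpolate endpoints linearly. Definition used: TGI = concentration required for complete inhibition of growth.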
Tests used:
Assay in all cases: NCI-60 cell line screen, 48 h
[1] = test system: SW-620 colon
[2] = test system: SNB-19 CNS
[3] = test system: SK-MEL-5 melanoma
[4] = test system: M14 melanoma
[5] = test system: OVCAR-5 ovarian
[6] = test system: SK-OV-3 ovarian
[7] = test system: HT29 colon
[8] = test system: HOP-92 NSCLC
[9] = test system: NCI-H226 lung
[10] = test system: A549 NSCLC
[11] = test system: COLO 205 colon
[12] = test system: PC-3 prostate
[13] = test system: SK-MEL-28 melanoma
[14] = test system: CAKI-1 renal
[15] = test system: SNB-75 CNS
[16] = test system: SF-539 CNS
[17] = test system: SR leukemia
[18] = test system: SF-268 CNS
[19] = test system: HS 578T breast
[20] = test system: UACC-257 melanoma
[21] = test system: TK-10 renal
[22] = test system: NCI-H460 lung
[23] = test system: BT-549 breast
[24] = test system: NCI-H23 lung
[25] = test system: SF-295 CNS
[26] = test system: DU-145 prostate
[27] = test system: MCF7 breast
[28] = test system: MOLT-4 leukemia
[29] = test system: IGROV1 ovarian
[30] = test system: T-47D breast
[31] = test system: SN12C renal
[32] = test system: HL-60(TB) leukemia
[33] = test system: EKVX NSCLC
[34] = test system: MALME-3M melanoma
[35] = test system: NCI-H522 lung
[36] = test system: KM12 colon
[37] = test system: SK-MEL-2 melanoma
[38] = test system: OVCAR-4 ovarian
[39] = test system: U251 CNS
[40] = test system: HOP-62 NSCLC
[41] = test system: HCT-15 colon
[42] = test system: 786-0 renal
[43] = test system: MDA-N
[44] = test system: HCC-2998 colon
[45] = test system: UO-31 renal
[46] = test system: RPMI-8226 leukemia
[47] = test system: UACC-62 melanoma
[48] = test system: HCT-116 colon
[49] = test system: NCI/ADR-RES ovarian
[50] = test system: MDA-MB-435
[51] = test system: OVCAR-3 ovarian
[52] = test system: ACHN renal
[53] = test system: OVCAR-8 ovarian
[54] = test system: LOX IMVI melanoma
[55] = test system: CCRF-CEM leukemia
[56] = test system: MDA-MB-231 breast
[57] = test system: RXF 393 renal
[58] = test system: K-562 leukemia
[59] = test system: A498 renal

Measured: TGI

C/C(CC1C2CCCC1C2)=N\NC(N)=O (centres undefined)
not listed: [57] | [58] | [59]
> 100 µM: all other assays above

N#CCCN(CCC#N)c1ccc(/C=C2\N=C(c3ccccc3)N(c3ccc(Cl)cc3)C2=O)cc1
86.8 µM: [19]
not listed: [14] | [15] | [17] | [24] | [44]
> 100 µM: all other assays above

CN(C)c1ccc(C=C2N=C(c3ccccc3)N(c3cc(C(=O)c4ccccc4)ccc3N3C(=O)/C(=C/c4ccc(N(C)C)cc4)N=C3c3ccccc3)C2=O)cc1
6.05 µM: [16]
5.57 µM: [51]
28.2 µM: [12]
22.7 µM: [44]
37.6 µM: [32]
29.5 µM: [39]
6.03 µM: [43]
4.42 µM: [50]
78.9 µM: [15]
24.7 µM: [7]
73.6 µM: [53]
27.1 µM: [25]
95.4 µM: [48]
8.86 µM: [46]
14.9 µM: [28]
21.4 µM: [37]
85.1 µM: [49]
19.4 µM: [11]
not listed: [9] | [24] | [34] | [35] | [57]
> 100 µM: all other assays above

Reference: PubChem BioAssay (NCI)
